Measurements from US7534766B2, “Glucuronide metabolites and epimers thereof of tigecycline” (Wyeth, priority 2004, dated 2009).

What was measured:
[1] = following multiple administrations of tigecycline; cited from earlier work
[2] = LC/MS detection of tigecycline metabolites in CD-1 mouse serum and urine after intravenous tigecycline; details: mouse, in vivo, iv, 5 mg/kg
Procedure: Fifteen male CD-1 mice, with an average weight of 31.3 g at the time of dosing, were used. Animals were given food and water ad libitum. Mice in the 0.5 and 2 hour blood collection groups were housed in standard cages, while those in the 4 hour blood collection group were housed in metabolism cages for the collection of urine. Mice were dosed by the Bioresources Department at Wyeth Research, Collegeville, Pa.
For mice and rabbits, the intravenous dosing solutions was prepared by dissolving 50 mg of tigecycline in 5.0 mL of 0.9% sterile saline solution to make a working stock solution. The working stock solution was diluted with 0.9% sterile saline solution to 0.5 mg/mL for mice and 4 mg/mL for rabbits. The mouse dose (5 mg/kg, 10 mL/kg) was administered as a bolus injection via the tail vein. The rabbit dose (4 mg/kg, 1 mL/kg) was administered as a bolus injection via the marginal vein of the ear.
For mice (n=5/time point), blood (approximately 0.7 mL) was collected by cardiac puncture at 0.5, 2 and 4 hours following administration of tigecycline. For rabbits, blood (approximately 7 mL) was collected via the ear vein at 0.5, 2 and 6 hours following the tigecycline dose. Serum was separated following clot formation at room temperature and centrifugation for 15 minutes at 4° C. and 3000 rpm. The serum was transferred to a fresh tube and was stored at approximately −70° C. until analysis as described below under “Serum Sample Preparation for LC/MS Analysis. In addition, urine was collected from mice in the 4 hour blood collection group and was stored at approximately −70° C. until analysis, as described below under “Urine Sample Preparation for LC/MS Analysis.”
Mouse urine was thawed and an aliquot (1 mL) transferred to a fresh tube. The sample was centrifuged at 14,000 rpm and room temperature for 10 minutes using a Model 5415C Eppendorf centrifuge (Brinkmann Instruments, Westbury, N.Y.) to remove any particulates. The sample was then transferred to a fresh tube and was analyzed by LC/MS, as described below under “Liquid Chromatography/Mass Spectrometry Analysis.”.
Mouse and rabbit serum samples were pooled at each collection time and analyzed for tigecycline, its epimer, tigecycline glucuronide (M7 and its epimer M6), 9-aminominocycline (M3) and N-acetyl-9-aminominocycline (M9 and its epimer M8). Aliquots of serum (500 μL) were transferred to new tubes and deuterated tigecycline (30 ng/mL final concentration) was added as an internal standard (quantitative analysis only). EDTA (40 μL of 0.5 M EDTA) was added to each sample and the samples vortex mixed. Acetonitrile (500 μL) was added to each sample, samples were vortex mixed and denatured protein separated by centrifugation at 14,000 rpm and room temperature for 10 minutes using a Model 5415C Eppendorf centrifuge (Brinkmann Instruments). The supernatant was transferred to a fresh tube and the solvent evaporated under a stream of nitrogen using a Turbovap Model LV evaporator (Caliper Life Sciences, Hopkinton, Mass.).
The HPLC system used for mass spectrometric analysis was a Waters Alliance Model 2695 HPLC system (Waters Corp., Milford, Mass.). It was equipped with a built-in autosampler and a Model 996 diode array UV detector. The UV detector was set to monitor 210-400 nm. Separations for metabolite characterization were accomplished on a Phenomenex Luna C18(2) column (150×2.1 mm, 5 μm) (Phenomenex, Torrance, Calif.) equipped with a Keystone Uniguard C18 guard column (10×2.1 mm) (Thermo Electron Corp., Bellefonte, Pa.). The column temperature was 25° C. The flow rate was 0.2 mL/min. Mobile phase A was 10 mM ammonium acetate in water and mobile phase B was acetonitrile.

[3] = Tigecycline metabolites identified in CD-1 mouse serum and urine and rabbit serum samples (LC/MS); type: in vivo; details: in vivo, iv
Procedure: The column temperature was 25° C. The flow rate was 0.2 mL/min. […] Gradient 1 was used for metabolite identification (qualitative analysis).
LC/MS analysis was conducted on extracts of serum and from CD-1 mice and rabbits, and on urine from CD-1 mice. The mass spectral data for tigecycline and its metabolites are discussed below.

observed in mouse urine by LC/MS [2]: No M9 was observed
Species and matrix in which identified [3]: R-S
SMILES: CC(=O)Nc1cc(N(C)C)c2c(c1O)C(=O)C1=C(O)C3(O)C(=O)C(C(N)=O)=C(O)C(N(C)C)C3CC1C2 (stereo not drawn) [Metabolite M9, N-acetyl-9-aminominocycline]
concentrations previously reported in human serum [1]: 3 to 15 ng/mL
